assay: Human HepG2 cell viability assay in 384 well format; assay type: toxicity, cell-based; parameters: dose 125 nL, time 70.5 hour; concentration not given beside the values; details: HepG2 cells, read-out: Inhibition

Structure (SMILES) | cytotoxicity at 70.5 h [%]
Cc1nc(C)n(C2CCCN(C(=O)CCc3ccncc3)C2)n1 (stereo not drawn) | -0.318
Cc1nc(C)n(C2CCCN(C(=O)CCCn3ccnc3)C2)n1 (stereo not drawn) | 4.28
O=C(NCCOc1ncc(Cl)cc1Cl)c1ccncc1F | 0.0766
CC(Oc1ccccc1C(F)(F)F)C(=O)NCCC(=O)N(C)C (stereo not drawn) | 0.999
COc1c(C2CCCN2C(=O)c2ccc(Cl)o2)c(C)nn1C (stereo not drawn) | -5.88
CNc1cc(N2CCCC2CNCc2ccc(Cl)o2)ncn1 (stereo not drawn) | 8.16
CCOC1CCC2(CCN(C(=O)c3csnn3)CC2)c2ccccc21 (stereo not drawn) | 36.5
COc1ncccc1CN1C[C@@H]2CN(c3ncccn3)C[C@@H]2C1 | 18.1
CN1CC[C@]2(CN(CC3CC3)C[C@H]2c2ccccc2)C1=O | 23.4
COc1cc(N2CCC3(CC2)CN(C)C(=O)CO3)ncn1 | 16.1
CC(=O)N1CCC(c2nc3ccc(C)cn3n2)CC1 | -0.807
O=C(c1ccc[nH]1)N1CCc2nnc(Cn3cccc3)n2CC1 | -7.68
O=C(c1ccc[nH]1)N1CCc2nnc(Cn3cccn3)n2CC1 | -2.61
COc1cc(N2CCC3(CC2)CNC(=O)CO3)ncn1 | -8.43
COC[C@@H]1CCC[C@]12CN(S(=O)(=O)c1cn(C)cn1)CCO2 | -6.65
O=C(Nc1ccccc1)N1C[C@H]2C[C@H](C(=O)N3CCOCC3)[C@@H](C1)O2 | -6.84
CCOC[C@@H]1CCC[C@]12CN(S(=O)(=O)c1cn(C)cn1)CCO2 | -5.13
CS(=O)(=O)N1CCC(c2nc3ccc(-c4cccc(F)c4)cn3n2)CC1 | -5.73
CN(C)C(=O)N1CC(C(=O)NCC2CC2)C2(CCOCC2)C1 (stereo not drawn) | 3.79
CO[C@@H]1CO[C@@]2(CCCN(S(=O)(=O)c3ccccc3)C2)C1 | -14.8
Cc1cccc(C(=O)N2Cc3ccccc3C3(CCN(C)CC3)C2)n1 | 7.65
CN1CCCC2(CCN(C(=O)c3ccncc3)C2)C1 (stereo not drawn) | 7.77

Structure (SMILES) | cytotoxicity at 70.5 h [%]
CC(C)n1ccc(-c2cc(C(=O)N3CCCC3)c3ccccn23)n1 | 39.5
CN1CCN(Cc2cn3c(n2)CN(Cc2cccnc2)CC3)CC1 | 19.4
O=C(NCc1cncc2c1CCN(C1CCOC1)C2)c1ccco1 (stereo not drawn) | -2.1
Cc1cccc(N2CCOCC3(C2)CN(c2cnn(C)c2)C(=O)CO3)n1 (stereo not drawn) | 16.9
Cc1cccc(N2CCOCC3(C2)CN(c2ccoc2)C(=O)CO3)n1 (stereo not drawn) | 6.55
O=C([C@H]1CCCO1)N1CCCC2(COCCN(c3ccccc3)C2)C1 (stereo partly drawn) | -10.4
O=C1NCC[C@]12CN(CC1CCOCC1)C[C@H]2c1ccccc1 | -7.01
CCN(CC)Cc1cc(=O)n2c(n1)CN(S(=O)(=O)C1CC1)CCC2 | -7.27
c1coc(CN2CCO[C@H]3[C@H](OCC4CC4)CC[C@@H]32)c1 | -10.8
COCC1c2c(cnn2C)CCN1C(=O)c1cc(C)on1 (stereo not drawn) | -0.669
Cc1ccc(N2CC[C@@H]3[C@@H]2CCN3C(=O)Cc2ccccc2)nn1 | 5.36
CCCC(=O)Nc1ccc2c(c1)C1(CCOCC1)CN2CCOC | 18.8
COCC(=O)N1CCC2(CC1)CC(COC)N(Cc1ccccn1)C2 (stereo not drawn) | -4.33
CN1CCOCC2(CCCN(C(=O)c3cnccn3)C2)C1 (stereo not drawn) | 0.574
c1cnc(N2CCC3(COCc4cnc(-c5cccnc5)nc43)C2)nc1 (stereo not drawn) | 19.5
COCC(=O)NC1CC2(CCN(Cc3ccco3)CC2)c2ccccc21 (stereo not drawn) | -12.8
CCC(=O)N1CC[C@H]2[C@H](C[C@@H](Cn3cccn3)N2c2nccs2)C1 | 8.28
Cn1ccc(CN2CCCC23CCN(Cc2ccccc2F)CC3)n1 | -4.06
Cc1ccc(N2CC[C@@H]3[C@@H]2CCN3Cc2ccsc2)nn1 | -0.146
CC(C)N1CCC2(CCN(C(=O)c3cccnc3)CC2)C1 | -16.3
FC1(F)CCN(Cc2ccccn2)CC12CCN(c1cccnc1)C2 (stereo not drawn) | 21.6

— ChEMBL document CHEMBL3507680, “University of Dundee, Gates Library screen for HepG2 cell viability”
